Earlier results as cited in patent US7662599B2, “Nucleic acids and polypeptides involved in the production of cryptophycin” (priority 2004, dated 2010).

Conditions: comparison in words

COc1ccc(C[C@H]2NC(=O)/C=C/C[C@@H]([C@H](C)[C@H]3O[C@@H]3c3ccccc3)OC(=O)[C@H](CC(C)C)OC(=O)[C@H](C)CNC2=O)cc1Cl [Cryptophycin 1]
activity relative to other cryptophycins: the most active natural compound
